This passage reports Kd results from patent US12054483B2, “Small molecule inhibitors of DYRK/CLK and uses thereof” (Arizona Board of Regents on Behalf of the University of …, priority 2018, dated 2024).

SMILES strings stand for the structures. pKd: −log10 of the molar value.

The target in the test is DYRK1A (Homo sapiens, UniProt Q13627). As to the kind of experiment: Affinity testing of compounds with DYRK1A (KD). Format: binding. The following applies: DYRK1A affinity key classes.
Molecule `Cc1nc2ccc(-c3cc[nH]c(=O)c3)nc2n1-c1ccc(CN2CCOCC2)cc1` [Compound 45, 4-(2-methyl-3-(4-(morpholinomethyl)phenyl)-3H-imidazo[4,5-b]pyridin-5-yl)pyridin-2(1H)-one] had a negative logarithm of the Kd (pKd) of 5.00 to 6.30.

`Cc1nc2ccc(-c3ccnc(N)c3)nc2n1-c1ccc2c(c1)OCC(=O)N2` [Compound 46, 7-(5-(2-aminopyridin-4-yl)-2-methyl-3H-imidazo[4,5-b]pyridin-3-yl)-2H-benzo[b][1,4]oxazin-3(4H)-one] had a negative logarithm of the Kd (pKd) of 7.00 to 9.30.

With `CC(=O)N1C[C@@H]2[C@H](C1)[C@H]2n1c(C)nc2ccc(-c3ccnc(N)c3)nc21` [Compound 47, 1-((1R,5S,6s)-6-(5-(2-aminopyridin-4-yl)-2-methyl-3H-imidazo[4,5-b]pyridin-3-yl)-3-azabicyclo[3.1.0]hexan-3-yl)ethan-1-one], the negative-log Kd (pKd) is 7.00 to 9.30.

The molecule `Cc1nc2ccc(-c3ccnc(N)c3)nc2n1-c1ccc(=O)n(C)c1` [Compound 48, 5-(5-(2-aminopyridin-4-yl)-2-methyl-3H-imidazo[4,5-b]pyridin-3-yl)-1-methylpyridin-2(1H)-one] had a negative logarithm of the Kd (pKd) of 7.00 to 9.30.

On to `Cc1nc2ccc(-c3ccnc(N)c3)nc2n1-c1ccc2[nH]cnc2c1` [Compound 49, 4-(3-(1H-benzo[d]imidazol-5-yl)-2-methyl-3H-imidazo[4,5-b]pyridin-5-yl)pyridin-2-amine], for which the negative logarithm of the Kd (pKd) is 7.00 to 9.30.

For `Cc1cc(-c2ccc3nc(C)n(-c4ccc5[nH]cnc5c4)c3n2)ccn1` [Compound 50, 3-(1H-benzo[d]imidazol-5-yl)-2-methyl-5-(2-methylpyridin-4-yl)-3H-imidazo[4,5-b]pyridine], the pKd was 7.00 to 9.30.

`Cc1cc(-c2ccc3nc(C)n(-c4ccc5[nH]cnc5c4)c3n2)cc(C)n1` [Compound 51, 3-(1H-benzo[d]imidazol-5-yl)-5-(2,6-dimethylpyridin-4-yl)-2-methyl-3H-imidazo[4,5-b]pyridine]: the pKd is 6.30 to 7.00.

With `Cc1cc(-c2ccc3nc(C)n(-c4ccc(N5CCOCC5)cc4)c3n2)cc(C)n1` [Compound 53, 4-(4-(5-(2,6-dimethylpyridin-4-yl)-2-methyl-3H-imidazo[4,5-b]pyridin-3-yl)phenyl)morpholine], the negative-log Kd (pKd) was 5.00 to 6.30.

Take `Cc1nc2ccc(-c3cc[nH]c(=O)c3)nc2n1-c1ccc(N2CCOCC2)cc1` [Compound 54, 4-(2-methyl-3-(4-morpholinophenyl)-3H-imidazo[4,5-b]pyridin-5-yl)pyridin-2(1H)-one]: the negative logarithm of the Kd (pKd) is 5.00 to 6.30.

The molecule `Cc1nc2ccc(-c3ccncc3)nc2n1-c1ccc(C(=O)N2CCOCC2)cc1` [Compound 56, (4-(2-methyl-5-(pyridin-4-yl)-3H-imidazo[4,5-b]pyridin-3-yl)phenyl)(morpholino)methanone] had a negative-log Kd (pKd) of 6.30 to 7.00.

For `Cc1nc2ccc(-c3ccncc3)nc2n1-c1ccc(C(=O)N2CCN(C3COC3)CC2)cc1` [Compound 57, (4-(2-methyl-5-(pyridin-4-yl)-3H-imidazo[4,5-b]pyridin-3-yl)phenyl)(4-(oxetan-3-yl)piperazin-1-yl)methanone], the pKd is 6.30 to 7.00.

For `Cc1nc2ccc(-c3ccncc3)nc2n1-c1ccc(C(=O)NC2CC(F)(F)C2)cc1` [Compound 58, N-(3,3-difluorocyclobutyl)-4-(2-methyl-5-(pyridin-4-yl)-3H-imidazo[4,5-b]pyridin-3-yl)benzamide], the pKd was 6.30 to 7.00.

`c1cc(-c2ccc3nnn(-c4ccc5[nH]cnc5c4)c3n2)ccn1` [Compound 59, 3-(1H-benzo[d]imidazol-5-yl)-5-(pyridin-4-yl)-3H-[1,2,3]triazolo[4,5-b]pyridine] had a pKd of 7.00 to 9.30.

`Cc1nc2ccc(-c3cc[n+]([O-])cc3)nc2n1-c1ccc2c(c1)OCO2` [Compound 60, 4-(3-(benzo[d][1,3]dioxol-5-yl)-2-methyl-3H-imidazo[4,5-b]pyridin-5-yl)-1λ^4-pyridin-2-ylium-1-olate] showed a pKd of 5.00 to 6.30.

`Cc1nc2ccc(-c3ccnc(C(F)F)c3)nc2n1-c1ccc2c(c1)OCO2` [Compound 61, 3-(benzo[d][1,3]dioxol-5-yl)-5-(2-(difluoromethyl)pyridin-4-yl)-2-methyl-3H-imidazo[4,5-b]pyridine] had a negative-log Kd (pKd) of 5.00 to 6.30.

`Cc1nc2ccc(-c3ccncc3)nc2n1-c1ncc(CN2CCCC(F)(F)C2)s1` [Compound 62, 5-((3,3-difluoropiperidin-1-yl)methyl)-2-(2-methyl-5-(pyridin-4-yl)-3H-imidazo[4,5-b]pyridin-3-yl)thiazole] showed a pKd of 7.00 to 9.30.

As for `Cc1nc2ccc(-c3ccncc3)nc2n1-c1ccc(CN2CCN(C3COC3)CC2)cc1` [Compound 63, 2-methyl-3-(4-((4-(oxetan-3-yl)piperazin-1-yl)methyl)phenyl)-5-(pyridin-4-yl)-3H-imidazo[4,5-b]pyridine], the negative-log Kd (pKd) was 7.00 to 9.30.

For the molecule `Cc1nc2ccc(-c3ccncc3)nc2n1-c1ccc(CN2CCOCC2)cn1` [Compound 64, 4-((6-(2-methyl-5-(pyridin-4-yl)-3H-imidazo[4,5-b]pyridin-3-yl)pyridin-3-yl)methyl)morpholine], the negative-log Kd (pKd) is 5.00 to 6.30.

`Cc1nc2ccc(-c3ccncc3)nc2n1-c1ccc(CN2CCCC(F)(F)C2)cc1` [Compound 65, 3-(4-((3,3-difluoropiperidin-1-yl)methyl)phenyl)-2-methyl-5-(pyridin-4-yl)-3H-imidazo[4,5-b]pyridine] gave a pKd of 6.30 to 7.00.

For `c1cc(-c2cn3c(-c4ccc5c(c4)OCO5)cnc3cn2)ccn1` [Compound 67, 3-(benzo[d][1,3]dioxol-5-yl)-6-(pyridin-4-yl)imidazo[1,2-a]pyrazine], the pKd was 7.00 to 9.30.

The molecule `c1cc(-c2cn3cnnc3cn2)ccn1` [Compound 68, 6-(pyridin-4-yl)-[1,2,4]triazolo[4,3-a]pyrazine] had a negative logarithm of the Kd (pKd) of 5.00 to 6.30.

Molecule `COc1cnc(-c2ccnc(N)c2)nc1` [Compound 69, 4-(5-methoxypyrimidin-2-yl)pyridin-2-amine] showed a negative-log Kd (pKd) of 6.30 to 7.00.

Molecule `COc1cnc(-c2ccncc2)nc1` [Compound 70, 5-methoxy-2-(pyridin-4-yl)pyrimidine] showed a pKd of 5.00 to 6.30.

The molecule `Cc1nc2cc(-c3ccnc(N)c3)cnc2[nH]1` [Compound 71, 4-(2-methyl-3H-imidazo[4,5-b]pyridin-6-yl)pyridin-2-amine] had a pKd of 7.00 to 9.30.

`COC(=O)c1ccc(-c2cnc3ccc(-c4ccncc4)nn23)cc1` [Compound 72, methyl 4-(6-(pyridin-4-yl)imidazo[1,2-b]pyridazin-3-yl)benzoate]: the negative logarithm of the Kd (pKd) is 7.00 to 9.30.

As to `c1cc(-c2ccc3ncc(-c4ccc(N5CCOCC5)nc4)n3n2)ccn1` [Compound 73, 4-(5-(6-(pyridin-4-yl)imidazo[1,2-b]pyridazin-3-yl)pyridin-2-yl)morpholine], the negative-log Kd (pKd) was 7.00 to 9.30.

For `c1cc(-c2ccc3ncc(-c4ccc(N5CCCCC5)nc4)n3n2)ccn1` [Compound 74, 3-(6-(piperidin-1-yl)pyridin-3-yl)-6-(pyridin-4-yl)imidazo[1,2-b]pyridazine], the negative-log Kd (pKd) is 6.30 to 7.00.

Molecule `COc1cccc(-c2cnc3ccc(-c4ccncc4)nn23)c1` [Compound 75, 3-(3-methoxyphenyl)-6-(pyridin-4-yl)imidazo[1,2-b]pyridazine] showed a pKd of 5.00 to 6.30.

Turning to `c1cc(-c2ccc3ncc(-c4ccc(N5CCNCC5)nc4)n3n2)ccn1` [Compound 76, 3-(6-(piperazin-1-yl)pyridin-3-yl)-6-(pyridin-4-yl)imidazo[1,2-b]pyridazine], the pKd was 7.00 to 9.30.
